Test results taken from PMC5059489, “Mechanistic evaluation and transcriptional signature of a glutathione S-transferase omega 1 inhibitor” (Nature Communications, 2016).

What was measured:
BxPC3 = experiment: MTT cytotoxicity GI50, BxPC3; type: cell-based; conditions: Homo sapiens, BXPC-3
Protocol: (§1) Cell proliferation was assessed by a MTT assay. Cancer cells were seeded in 96-well microtitre plates and, after overnight attachment, treated with GSTO1 inhibitors. After 72 h, MTT solution (3 mg ml^−1; 20 μl) was added to each well and cells were incubated for 3 h at 37 °C. After incubation, media from each well was removed and the dark blue formazan crystals formed by live cells were dissolved in DMSO (150 μl per well). The absorbance intensity was measured at 570 nm on a microplate reader (Molecular Devices, Sunnyvale, CA, USA). Cell viability after 24 h treatment was assessed using ApoTox-Glo triplex assay (Promega) according to the manufacturer's protocol. At least three independent dose–response experiments with each concentration tested in triplicate were performed for each cell line.

HCT116 cells [1] = experiment: Cell cycle analysis by flow cytometry; type: cell-based, human; conditions: 5 μM, 24 h
Protocol: Cells were seeded at a density of 0.5 × 10^6 per well in a six-well plate. After overnight attachment, cells were treated with C1-27 (5 μM) for 24 h and collected using trypsin. Cells were then washed twice with PBS containing 10% serum and fixed with 70% ethanol overnight at −20 °C. Fixed cells were washed twice in PBS containing 10% serum and stained with 50 μg ml^−1 propidium iodide solution containing 100 μg ml^−1 RNase A for 1 h at 37 °C. Cell cycle was analysed on a BD LSR II flow cytometer (BD Biosciences) and data were analysed using ModFit software.

HCT116 cells [2] = experiment: Bru-seq nascent RNA profiling; conditions: 24 h treatment
Protocol: The data set was analysed using the DAVID, ingenuity pathway analysis (IPA) and GSEA for pathway identification. […] Data sets with nearly 250 genes containing the gene identifiers and fold changes were uploaded to the IPA web-based application and each gene identifier was mapped to its corresponding gene object in the ingenuity pathways knowledge base. Finally, the biological function genes were ordered by P value of significance and maximum number of genes in the pathway. Bru-Seq data were further analysed using GSEA for exploring the mechanism of cellular action of GSTO1 and its inhibitor. A pre-ranked gene list of the Bru-Seq data set was submitted to GSEA, and enrichment analysis was done based on the Kolmogorov–Smirnov statistic[59][60]. […] For each gene set, the ES (enrichment score) was normalized to account for differences in gene set size and the false discovery rate relative to the normalized enrichment score values was calculated.

THP-1 cells = experiment: IL-1β secretion from LPS-primed THP-1 cells; type: cell-based; conditions: LPS-primed THP-1, 1.5 h, then ATP 5 mM 30 min, western blot
Protocol: HCT116 cells were seeded in a six-well plate and treated with GSTO1 inhibitors for 24 h. Cells were washed with ice-cold PBS and lysed with a triple detergent lysis buffer supplemented with protease and phosphatase inhibitor cocktail. Lysate was sonicated and centrifuged at 12,000 r.p.m. for 10 min at 4 °C to remove cell debris. Total protein concentration in the supernatant was measured using BCA protein assay kit (Pierce Biotechnology). For IL-1β experiments, THP-1 cells (1 × 10^6 per well) were seeded in a 12-well plate and differentiated overnight with 10 nM phorbol myristate acetate. […] Band intensities were quantified using Image J software. […]
Supplementary Fig. 23. […] (a) ATP-induced IL-1β secretion from LPS-stimulated THP-1 cells was analyzed by ELISA. […] Cytokine secretion level is expressed as a percentage of that released from control cells treated with DMSO. Data are mean readings of duplicate wells. […]
treated with indicated concentrations of C1-27 or GLY (50 µM) for 1.5 h, followed by stimulation with ATP (5 mM) for 30 min. Concentrated supernatant was analyzed by western blotting using anti IL-1β antibody. […] Expression of pro- IL-1β in response to LPS was analyzed by western blotting. […] Representative plots of several gene expression datasets analyzed in Oncomine are shown. […]

NCIADR Res = experiment: MTT cytotoxicity GI50, NCI-ADR/Res; type: cell-based; conditions: Homo sapiens, NCI/ADR-RES
Excerpt: Colon cancer cell line HCT116 was generously provided by Dr Bert Vogelstein, Johns Hopkins Medical Institutions, Baltimore, MD. Pancreatic cancer cell line Panc-1 was obtained from Dr Alan Epstein, University of Southern California. All other cell lines were purchased from the American Type Culture Collection (Manassas, VA). MDA-MB-435 cell line was used in the GSTO1 knockdown experiment as it had high GSTO1 expression (Supplementary Fig. 17). We also tested active compounds in NCI-ADR/Res cell line since GSTO1 is implicated in drug resistance. Cell lines were cultured in RPMI 1640 or […] supplemented with 10% fetal bovine serum at 37 °C in a humidified atmosphere of 5% CO2. All cell lines were maintained in culture under 30 passages and tested regularly for Mycoplasma contamination using PlasmoTest (InvivoGen, San Diego, CA, USA).
as §1

H1299 = experiment: MTT cytotoxicity GI50, H1299; type: cell-based; conditions: Homo sapiens, NCI-H1299
Protocol: as §1

HCT116 cells [3] = experiment: Caspase 3/7 assay (ApoTox-Glo); type: cell-based, human; conditions: 24 h
Protocol: HCT116 cells were treated with indicated concentrations of C1-27 for 24 h. Caspase activation was measured using ApoTox-Glo triplex assay reagent according to the manufacturer's recommendation.

**Q.** What does the source list for `CN(C)S(=O)(=O)c1cc(NC(=O)CCl)ccc1Cl` [C1-27]?
**A.** GI50 (BxPC3): 5.5 ± 1 µM; S-phase population (HCT116 cells [1]): increase; overlap of transcriptional changes with the inactive control C1-14 (HCT116 cells [2]): < 12%; IL-1β release (THP-1 cells): Dose-dependent inhibition; GI50 (NCIADR Res): 3.7 µM; GI50 (H1299): 1.9 µM; caspases (HCT116 cells [3]): activation
